In US20080132562A1, “TETRONIC AND TETRAMIC ACIDS” (priority 2003, published 2008):
pIC50: −log10 of the molar value.

Molecular target: T1, purified BACE protein (β-secretase) (Homo sapiens, UniProt P56817)
T1 construct: made in house
Experiment: Competitive Radioligand Binding Assay (RLBA)
Conditions: β-secretase inhibition; displacement of tritiated Compound A tracer from plate-coated BACE, binding buffer pH 4.1; read-out: IC50 in vitro
Procedure: Competitive Radioligand Binding Assay (RLBA)
96 well microplates (Optiplate Packard) are coated with purified BACE protein (see e.g. GB 2,385,124: Examples 1 and 2) using a concentration of 1 μg/ml in 30 mM sodium citrate buffer adjusted to pH 5.5. The coating is achieved by incubation of 100 μl/well for 1-3 days at 4° C. The plate is then washed with 2×300 μl/well of 10 mM citrate pH 4.1. To each well 100 μl binding buffer (30 mM citrate, 100 mM NaCl, 0.1% BSA, pH 4.1) is dispensed. The test compound is added in 5 μl from a DMSO stock solution or appropriate dilutions. To this the tracer (tritiated Compound A, see e.g. GB 2,385,124: Example 4) is added in 10 μl/well from a 10 μCi/ml stock solution in binding buffer. After incubation for 1.5-2 hours in a humid chamber at ambient temperature the plate is washed with 2×300 μl/well water and flipped on a dry towel. Following the addition of 50 μl/well MicroScint20 (Packard) the plate is sealed and vibrated for 5 seconds. The bound radioactivity is counted on a Topcount (Packard). Total binding is typically between 2000 and 10000 cpm/well depending mainly on the purity and concentration of the BACE protein. Non-specific binding as assessed by competition with >1 μM peptidic inhibitor (Bachem #H-4848) is typically between 30 and 300 cpm/well. The IC-50 values are calculated by Microsoft Excel FIT.

T1 sequence (P56817 46-501): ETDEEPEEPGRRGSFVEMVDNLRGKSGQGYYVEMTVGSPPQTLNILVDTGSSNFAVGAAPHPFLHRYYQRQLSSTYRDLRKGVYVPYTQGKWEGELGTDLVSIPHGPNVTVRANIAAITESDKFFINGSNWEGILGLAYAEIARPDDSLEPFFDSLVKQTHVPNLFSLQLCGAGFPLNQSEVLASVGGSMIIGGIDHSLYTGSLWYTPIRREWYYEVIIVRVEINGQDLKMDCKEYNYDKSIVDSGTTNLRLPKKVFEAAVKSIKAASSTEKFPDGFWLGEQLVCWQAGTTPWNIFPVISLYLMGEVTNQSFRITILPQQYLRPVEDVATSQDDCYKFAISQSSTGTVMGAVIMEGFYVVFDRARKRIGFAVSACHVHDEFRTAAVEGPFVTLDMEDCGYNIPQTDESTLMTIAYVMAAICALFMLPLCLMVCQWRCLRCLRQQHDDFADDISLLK

pIC50	SMILES
4.24	O=C(CCCC1CCCCC1)C1=C(O)C(CCc2ccccc2)OC1=O (racemic) [Example E7, Rac-3-(4-cyclohexyl-butyryl)-4-hydroxy-5-phenethyl-5H-furan-2-one]
4.89	CC(Cc1ccc(OCc2ccccc2)cc1)C(=O)C1=C(O)C(CC2CCCCC2)OC1=O (stereo not drawn) [Example C9, 3-[3-(4-Benzyloxy-phenyl)-2-methyl-propionyl]-5-cyclohexylmethyl-4-hydroxy-5H-furan-2-one]
4.92	COc1ccc(Cl)cc1C(=O)NCCc1ccc(CC(C)C(=O)C2=C(O)C(CC3CCCCC3)OC2=O)cc1 (stereo not drawn) [Example C12, 5-Chloro-N-(2-{4-[3-(5-cyclohexylmethyl-4-hydroxy-2-oxo-2,5-dihydro-furan-3-yl)-2-methyl-3-oxo-propyl]-phenyl}-ethyl)-2-methoxy-benzamide]
4.82	O=C(Cc1cn(Cc2ccc(F)cc2)c2ccccc12)C1=C(O)C(CC2CCCCC2)OC1=O (stereo not drawn) [Example C19, 5-Cyclohexylmethyl-3-{[1-(4-fluoro-benzyl)-1H-indol-3-yl]-acetyl}-4-hydroxy-5H-furan-2-one]
4.96	O=C(Cn1c2ccccc2c2ccccc21)C1=C(O)C(CC2CCCCC2)OC1=O (stereo not drawn) [Example C33, 3-(Carbazol-9-yl-acetyl)-5-cyclohexylmethyl-4-hydroxy-5H-furan-2-one]
4.48	CC(Cc1ccc(C(C)(C)C)cc1)C(=O)C1=C(O)C(Cc2ccccc2)OC1=O (stereo not drawn) [Example D2, 5-Benzyl-3-[3-(4-tert-butyl-phenyl)-2-methyl-propionyl]-4-hydroxy-5H-furan-2-one]
4.85	O=C(Cc1c[nH]c2ccccc12)C1=C(O)C(CCCc2ccccc2)OC1=O (stereo not drawn) [Example F5, 4-Hydroxy-3-[(H-indol-3-yl)-acetyl]-5-(3-phenyl-propyl)-5H-furan-2-one]
4.07	O=C(CC(c1ccccc1)c1ccccc1)C1=C(O)C(CCCN2CCOCC2)OC1=O (stereo not drawn) [Example G29, 3-(3,3-Diphenyl-propionyl)-4-hydroxy-5-(3-morpholin-4-yl-propyl)-5H-furan-2-one]
4.51	CC1(CCc2ccccc2)OC(=O)C(C(=O)CC2c3ccccc3-c3ccccc32)=C1O (stereo not drawn) [Example I7, 3-[(9H-Fluoren-9-yl)-acetyl]-4-hydroxy-5-methyl-5-phenethyl-5H-furan-2-one]
4.39	O=C(CC(c1ccccc1)c1ccccc1)C1=C(O)C(CCc2ccccc2)(c2ccccc2)OC1=O (stereo not drawn) [Example J4, 3-(3,3-Diphenyl-propionyl)-4-hydroxy-5-phenethyl-5-phenyl-5H-furan-2-one]
4.80	NC(Cc1ccc(OCc2ccccc2)cc1)C(=O)C1=C(O)C(CCc2ccccc2)NC1=O (stereo not drawn) [Example K38, 3-[2-Amino-3-(4-benzyloxy-phenyl)-propionyl]-4-hydroxy-5-phenethyl-1,5-dihydro-pyrrol-2-one; compound with trifluoro-acetic acid]
4.44	O=C(Cn1c2ccccc2c2ccccc21)C1=C(O)C(CCc2ccccc2)NC1=O (stereo not drawn) [Example K46, 3-(Carbazol-9-yl-acetyl)-4-hydroxy-5-phenethyl-1,5-dihydro-pyrrol-2-one]
